Measurements: paper PMC9267128, “New 2-[(4-Amino-6-N-substituted-1,3,5-triazin-2-yl)methylthio]-N-(imidazolidin-2-ylidene)-4-chloro-5-methylbenzenesulfonamide Derivatives, Design, Synthesis and Anticancer Evaluation” (International Journal of Molecular Sciences, 2022)

How the values were obtained:
HCT-116 (colon cancer) = experiment: MTT cell viability assay, HCT-116; type: cell-based, human; settings: for IC50: Homo sapiens, HCT-116, 72 h, MTT assay, 72 h of incubation
Protocol: (§1) Analysis was performed using an MTT assay after 72 h of incubation.
(§2) All chemicals, if not stated otherwise, were obtained from Sigma–Aldrich (St. Louis, MO, USA). The HCT-116 cell line was purchased from ATCC (ATCC-No: CCL-247), while the MCF-7, HeLa and HaCaT cell lines were purchased from Cell Lines Services (Eppelheim, Germany). Cells were cultured in Dulbecco’s modified Eagle’s medium (DMEM) supplemented with 10% fetal bovine serum, 2 mM glutamine, 100 units/mL penicillin and 100 µg/mL streptomycin. Cultures were maintained in a humidified atmosphere with 5% carbon dioxide at 37 °C in an incubator (Heraceus, HeraCell).
(§3) Cell viability was examined using the MTT [3-(4,5-dimethylthiazol-2-yl)-2,5-diphenyltetrazolium bromide] assay. Cells were seeded in 96-well plates at a density of 3 × 10^3 cells/well and treated for 72 h with the tested compounds in the concentration range of 1–100 µM. Then, MTT (0.5 mg/mL) was added to the medium and cells were further incubated for 2 h at 37 °C. In the next stage, cells were lysed with DMSO and the absorbance of the formazan solution was measured at 550 nm with a plate reader (1420 multilabel counter, Victor, Jügesheim, Germany). The experiment was performed in triplicate. Values are expressed as the mean ± SD of at least three independent experiments.

MCF-7 (breast cancer) = experiment: MTT cell viability assay, MCF-7; type: cell-based, human; settings: for IC50: Homo sapiens, MCF7, 72 h, MTT assay, 72 h of incubation
Protocol: (§4) Compounds 20–162 were evaluated in vitro for their effects on the viability of three cancer cell lines: HCT-116 (colon cancer), MCF-7 (breast cancer) and HeLa (cervical cancer), as well as the non-cancerous keratinocyte cell line (HaCaT). […] Analysis was performed using an MTT assay after 72 h of incubation.
as §2
as §3, with “experiments. Cisplatin was used as a positive control.” for “experiments.”

HeLa (cervical cancer) = experiment: MTT cell viability assay, HeLa; type: cell-based, human; settings: for IC50: Homo sapiens, HeLa, MTT assay, 72 h of incubation
Protocol: as §1, §2, §3

[1] = test system: HaCaT (human keratinocyte cell line); experiment: MTT cell viability assay, non-cancerous HaCaT; type: cell-based; settings: Homo sapiens, HaCaT, 72 h, 72 h of incubation, non-cancerous keratinocytes
Protocol: as §4, §2
as §3, with “experiments. Cisplatin was used as a positive control.” for “experiments.”

Structure (SMILES) | IC50 (HCT-116 (colon cancer)) [µM] | IC50 (MCF-7 (breast cancer)) [µM] | IC50 (HeLa (cervical cancer)) [µM] | IC50 [1] [µM] | Selectivity Index (SI) HCT-116 (HCT-116 (colon cancer); IC50 value toward HaCaT cells/IC50 value toward HCT-116) | Selectivity Index (SI) MCF-7 (MCF-7 (breast cancer); IC50 value toward HaCaT cells/IC50 value toward MCF-7) | Selectivity Index (SI) HeLa (HeLa (cervical cancer); IC50 value toward HaCaT cells/IC50 value toward HeLa)
Cc1cc(S(=O)(=O)N=C2NCCN2)c(SCc2nc(N)nc(N(C)C)n2)cc1Cl [Compound 20] | 110 ± 2 | 220 ± 6 | 115 ± 7 |  |  |  | 
Cc1cc(S(=O)(=O)N=C2NCCN2)c(SCc2nc(N)nc(N3CCOCC3)n2)cc1Cl [Compound 21] | 350 ± 7 | 190 ± 2 | 510 ± 5 |  |  |  | 
CC1=NN(c2nc(N)nc(CSc3cc(Cl)c(C)cc3S(=O)(=O)N=C3NCCN3)n2)C(C)(C)C1 [Compound 22] | 140 ± 3 | 130 ± 4 | 110 ± 4 |  |  |  | 
Cc1cc(S(=O)(=O)N=C2NCCN2)c(SCc2nc(N)nc(N3CCc4ccccc43)n2)cc1Cl [Compound 23] | 142 ± 4 | 130 ± 3 | 150 ± 2 |  |  |  | 
Cc1cc(S(=O)(=O)N=C2NCCN2)c(SCc2nc(N)nc(N3CCCc4ccccc43)n2)cc1Cl [Compound 24] | 20 ± 0.4 | 27 ± 0.3 | 22 ± 0.2 | 41 ± 1 |  |  | 
Cc1cc(S(=O)(=O)N=C2NCCN2)c(SCc2nc(N)nc(Nc3ccccc3)n2)cc1Cl [Compound 25] | 45 ± 2 | 46 ± 2 | 46 ± 2 | 54 ± 2 |  |  | 
Cc1cc(S(=O)(=O)N=C2NCCN2)c(SCc2nc(N)nc(Nc3ccc(F)cc3)n2)cc1Cl [Compound 26] | 33 ± 2 | 33 ± 1 | 34 ± 1 | 45 ± 2 |  |  | 
Cc1cc(S(=O)(=O)N=C2NCCN2)c(SCc2nc(N)nc(NCc3ccccc3)n2)cc1Cl [Compound 27] | 39 ± 2 | 44 ± 1 | 74 ± 2 | 75 ± 3 |  |  | 
Cc1cc(S(=O)(=O)N=C2NCCN2)c(SCc2nc(N)nc(N(C)c3ccccc3)n2)cc1Cl [Compound 28] | 58 ± 0.6 | 45 ± 0.5 | 80 ± 1 |  |  |  | 
Cc1cc(S(=O)(=O)N=C2NCCN2)c(SCc2nc(N)nc(N(C)c3ccc(Cl)cc3)n2)cc1Cl [Compound 29] | 25 ± 0.5 | 24 ± 0.2 | 32 ± 0.3 | 43 ± 2 |  |  | 
Cc1cc(S(=O)(=O)N=C2NCCN2)c(SCc2nc(N)nc(N3CCN(c4ccccc4)CC3)n2)cc1Cl [Compound 31] |  |  | 16 ± 0.1 | 26 ± 1 |  |  | 
Cc1cc(S(=O)(=O)N=C2NCCN2)c(SCc2nc(N)nc(N3CCN(c4ccc(F)cc4)CC3)n2)cc1Cl [Compound 32] | 14 ± 0.5 | 16 ± 0.5 | 14 ± 0.5 | 28 ± 1 |  |  | 
Cc1cc(S(=O)(=O)N=C2NCCN2)c(SCc2nc(N)nc(N3CCN(c4ccccc4F)CC3)n2)cc1Cl [Compound 33] | 19 ± 0.5 | 26 ± 1 | 25 ± 1 | 41 ± 2 |  |  | 
Cc1cc(S(=O)(=O)N=C2NCCN2)c(SCc2nc(N)nc(N3CCN(c4ccc(C(F)(F)F)cc4)CC3)n2)cc1Cl [Compound 34] | 18 ± 1 | 12 ± 0.5 | 24 ± 2 | 41 ± 1 |  |  | 
Cc1cc(S(=O)(=O)N=C2NCCN2)c(SCc2nc(N)nc(N3CCN(c4cccc(C(F)(F)F)c4)CC3)n2)cc1Cl [Compound 35] | 14 ± 0.7 | 16 ± 1 | 16 ± 1 | 32 ± 2 |  |  | 
Cc1cc(S(=O)(=O)N=C2NCCN2)c(SCc2nc(N)nc(N3CCN(c4ccc(Cl)cc4)CC3)n2)cc1Cl [Compound 36] | 12 ± 0.1 | 13 ± 0.1 | 12 ± 0.1 | 28 ± 1 |  |  | 
Cc1cc(S(=O)(=O)N=C2NCCN2)c(SCc2nc(N)nc(N3CCN(c4cccc(Cl)c4)CC3)n2)cc1Cl [Compound 37] | 18 ± 0.5 | 19 ± 1 | 24 ± 1 | 37 ± 2 |  |  | 
Cc1cc(S(=O)(=O)N=C2NCCN2)c(SCc2nc(N)nc(N3CCN(c4ccc(Cl)c(Cl)c4)CC3)n2)cc1Cl [Compound 38] | 15 ± 0.5 | 28 ± 1 | 19 ± 1 | 35 ± 1 |  |  | 
Cc1cc(S(=O)(=O)N=C2NCCN2)c(SCc2nc(N)nc(N3CCN(c4ccc(F)c(Cl)c4)CC3)n2)cc1Cl [Compound 39] | 15 ± 1 | 17 ± 1 | 18 ± 1 | 37 ± 2 |  |  | 

Structure (SMILES) | IC50 (HCT-116 (colon cancer)) [µM] | IC50 (MCF-7 (breast cancer)) [µM] | IC50 (HeLa (cervical cancer)) [µM] | IC50 [1] [µM] | Selectivity Index (SI) HCT-116 (HCT-116 (colon cancer); IC50 value toward HaCaT cells/IC50 value toward HCT-116) | Selectivity Index (SI) MCF-7 (MCF-7 (breast cancer); IC50 value toward HaCaT cells/IC50 value toward MCF-7) | Selectivity Index (SI) HeLa (HeLa (cervical cancer); IC50 value toward HaCaT cells/IC50 value toward HeLa)
COc1ccc(N2CCN(c3nc(N)nc(CSc4cc(Cl)c(C)cc4S(=O)(=O)N=C4NCCN4)n3)CC2)cc1 [Compound 40] | 21 ± 0.5 | 28 ± 2 | 23 ± 1 | 45 ± 3 |  |  | 
COc1ccccc1N1CCN(c2nc(N)nc(CSc3cc(Cl)c(C)cc3S(=O)(=O)N=C3NCCN3)n2)CC1 [Compound 41] | 21 ± 1 | 46 ± 1 | 39 ± 2 | 51 ± 3 |  |  | 
Cc1cc(S(=O)(=O)N=C2NCCN2)c(SCc2nc(N)nc(N3CCN(Cc4ccccc4)CC3)n2)cc1Cl [Compound 42] | 31 ± 1 | 31 ± 2 | 30 ± 1.5 | 61 ± 4 |  |  | 
Cc1cc(S(=O)(=O)N=C2NCCN2)c(SCc2nc(N)nc(N3CCC(Cc4ccccc4)CC3)n2)cc1Cl [Compound 43] | 17 ± 1 | 22 ± 0.5 | 19 ± 0.5 | 43 ± 2 |  |  | 
Cc1cc(S(=O)(=O)N=C2NCCN2)c(SCc2nc(N)nc(N3CC=C(c4ccc(F)cc4)CC3)n2)cc1Cl [Compound 44] | 14 ± 0.5 | 16 ± 0.5 | 14 ± 0.5 | 28 ± 1 |  |  | 
Cc1cc(S(=O)(=O)N=C2NCCN2Cc2ccccc2)c(SCc2nc(N)nc(N(C)C)n2)cc1Cl [Compound 45] | 19 ± 0.4 | 22 ± 0.2 | 34 ± 1 | 43 ± 2 |  |  | 
Cc1cc(S(=O)(=O)N=C2NCCN2Cc2ccccc2)c(SCc2nc(N)nc(N3CCOCC3)n2)cc1Cl [Compound 46] | 21 ± 0.2 | 23 ± 0.7 | 37 ± 0.4 |  |  |  | 
CC1=NN(c2nc(N)nc(CSc3cc(Cl)c(C)cc3S(=O)(=O)N=C3NCCN3Cc3ccccc3)n2)C(C)(C)C1 [Compound 47] | 19 ± 0.2 | 20 ± 0.4 | 34 ± 0.3 | 45 ± 2 |  |  | 
Cc1cc(S(=O)(=O)N=C2NCCN2Cc2ccccc2)c(SCc2nc(N)nc(N3CCCc4ccccc43)n2)cc1Cl [Compound 49] | 14 ± 0.1 | 17 ± 0.3 | 24 ± 0.5 | 38 ± 1 |  |  | 
Cc1cc(S(=O)(=O)N=C2NCCN2Cc2ccccc2)c(SCc2nc(N)nc(Nc3ccccc3)n2)cc1Cl [Compound 50] | 18 ± 0.2 | 43 ± 1 | 35 ± 2 | 51 ± 2 |  |  | 
Cc1cc(S(=O)(=O)N=C2NCCN2Cc2ccccc2)c(SCc2nc(N)nc(Nc3ccc(C(F)(F)F)cc3)n2)cc1Cl [Compound 51] | 19 ± 0.6 | 10 ± 0.5 | 15 ± 1 | 220 ± 12 |  |  | 
COc1ccc(Nc2nc(N)nc(CSc3cc(Cl)c(C)cc3S(=O)(=O)N=C3NCCN3Cc3ccccc3)n2)cc1 [Compound 52] | 37 ± 0.5 | 64 ± 2 | 61 ± 2 | 92 ± 3 |  |  | 
Cc1cc(S(=O)(=O)N=C2NCCN2Cc2ccccc2)c(SCc2nc(N)nc(NCc3ccccc3)n2)cc1Cl [Compound 53] | 10 ± 0.5 | 11 ± 0.5 | 85 ± 2 | 81 ± 4 |  |  | 
Cc1cc(S(=O)(=O)N=C2NCCN2Cc2ccccc2)c(SCc2nc(N)nc(N(C)c3ccccc3)n2)cc1Cl [Compound 54] | 11 ± 0.1 | 12 ± 0.1 | 16 ± 0.2 | 28 ± 1 |  |  | 
Cc1cc(S(=O)(=O)N=C2NCCN2Cc2ccccc2)c(SCc2nc(N)nc(N(C)c3ccc(Cl)cc3)n2)cc1Cl [Compound 55] | 7 ± 0.1 | 10 ± 0.2 | 13 ± 0.1 | 39 ± 2 | 5.5 | 3.9 | 3.0
Cc1cc(S(=O)(=O)N=C2NCCN2Cc2ccccc2)c(SCc2nc(N)nc(N3CCN(C)CC3)n2)cc1Cl [Compound 56] | 22 ± 1 | 54 ± 1 | 37 ± 1 | 58 ± 2 |  |  | 
Cc1cc(S(=O)(=O)N=C2NCCN2Cc2cccc3ccccc23)c(SCc2nc(N)nc(N3CCN(c4ccc(Cl)cc4)CC3)n2)cc1Cl [Compound 79] | 94 ± 2 | 98 ± 5 | 88 ± 3 |  |  |  | 
Cc1cc(S(=O)(=O)N=C2NCCN2Cc2cccc3ccccc23)c(SCc2nc(N)nc(N3CCN(c4ccc(Cl)c(Cl)c4)CC3)n2)cc1Cl [Compound 80] | 79 ± 2 | 89 ± 4 | 98 ± 5 |  |  |  | 
